# How the values were obtained:
# Assay in all cases: drug sensitivity score (DSS2, normalised partial AUC of dose-response, 72 h CellTiter-Glo viability) (DSS (dimensionless)); higher = more sensitive (stronger growth inhibition / cytotoxicity); extreme values may be limits of the assay
# CAF#4 = tested on: CAF#4 (primary prostate cancer-associated fibroblasts of iCAF-like type)
# Procedure, shortened: (§1)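 In BREEZE, the drug sensitivity score was derived as a partial area under a fitted logistic dose–response curve over the log of that curve's upper asymptote; a higher score marks a more sensitive response. The input came from low-passage primary prostate cancer-associated fibroblasts, PF179T, WPMY-1, LNCaP and 22Rv1 cells, each seeded into 384-well plates with compounds pre-dispensed at five doses spanning a 10,000-fold range. CellTiter-Glo 2.0 luminescence after 72 h gave viability, which was normalized to vehicle and positive-control wells.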
# CAF#5 = tested on: CAF#5 (primary prostate cancer-associated fibroblasts of myCAF-like type)
# Procedure, shortened: as §1
# WPMY-1 = tested on: WPMY-1
# Procedure, shortened: as §1
# CAF#3 = tested on: CAF#3 (primary prostate cancer-associated fibroblasts of myCAF-like type)
# Procedure, shortened: as §1
# CAF#7 = tested on: CAF#7 (primary prostate cancer-associated fibroblasts of myCAF-like type)
# Procedure, shortened: as §1
# CAF#6 = tested on: CAF#6 (primary prostate cancer-associated fibroblasts of iCAF-like type)
# Procedure, shortened: as §1
# CAF#1 = tested on: CAF#1 (primary prostate cancer-associated fibroblasts of myCAF-like type)
# Procedure, shortened: as §1
# 22Rv1 = tested on: 22Rv1
# Procedure, shortened: as §1
# LNCAP = tested on: LNCAP
# Procedure, shortened: as §1
# PF179T = tested on: PF179T
# Procedure, shortened: as §1
# CAF#2 = tested on: CAF#2 (primary prostate cancer-associated fibroblasts of iCAF-like type)
# Procedure, shortened: as §1
Structure (SMILES),drug sensitivity score (CAF#4),drug sensitivity score (CAF#5),drug sensitivity score (WPMY-1),drug sensitivity score (CAF#3),drug sensitivity score (CAF#7),drug sensitivity score (CAF#6),drug sensitivity score (CAF#1),drug sensitivity score (22Rv1),drug sensitivity score (LNCAP),drug sensitivity score (PF179T),drug sensitivity score (CAF#2)
COc1cc(N2CCC(N3CCN(C)CC3)CC2)ccc1Nc1ncc(Cl)c(Nc2ccccc2P(C)(C)=O)n1 [Brigatinib] (tested concentration range 0.1-1000 nM),2.1,3.6,2.4,3.1,3,3.9,4,1.7,0,2.2,3.5
Cc1cc2c(F)c(Oc3ncnn4cc(OC[C@@H](C)O)c(C)c34)ccc2[nH]1 [Brivanib] (tested concentration range 0.1-1000 nM),0,0,0,0,0,0,0,0,1.2,0,0
CCC/C=C/C=C/C(=O)O[C@H]1/C(=C/C(=O)OC)C[C@H]2C[C@H]([C@@H](C)O)OC(=O)C[C@H](O)C[C@@H]3C[C@H](OC(C)=O)C(C)(C)[C@](O)(C[C@@H]4C/C(=C/C(=O)OC)C[C@H](/C=C/C(C)(C)[C@]1(O)O2)O4)O3 [Bryostatin 1] (tested concentration range 0-100 nM),0.5,3,1.3,0.6,4,2.6,4.2,0,0.1,0,3.4
Cc1noc2c1-c1ccccc1C(c1ccc(Cl)cc1)=N[C@H]2CC(N)=O [CPI-0610] (tested concentration range 1-10000 nM),1.4,4.1,7.9,8.4,1.8,4.5,7,9.2,13,4.1,6.5
CO[C@H]1C(=O)[C@]2(C)[C@@H](OC)C[C@H]3OC[C@@]3(OC(C)=O)[C@H]2[C@H](OC(=O)c2ccccc2)[C@]2(O)C[C@H](OC(=O)[C@H](O)[C@@H](NC(=O)OC(C)(C)C)c3ccccc3)C(C)=C1C2(C)C [Cabazitaxel] (tested concentration range 0.1-1000 nM),13,15.8,28.2,14.2,26.4,18.4,14.6,26.5,35.6,22.2,18.1
COc1cc2nccc(Oc3ccc(NC(=O)C4(C(=O)Nc5ccc(F)cc5)CC4)cc3)c2cc1OC [Cabozantinib] (tested concentration range 0.1-1000 nM),3.9,7.4,3.8,5.4,5.6,3.7,4.6,0.3,7.1,4.1,7.9
CCCCCOC(=O)Nc1nc(=O)n([C@@H]2O[C@H](C)[C@@H](O)[C@H]2O)cc1F [Capecitabine] (tested concentration range 1-10000 nM),0,0,0,0,0,0,0,0,0,0,0
NC1(C(=O)N[C@@H](CCO)c2ccc(Cl)cc2)CCN(c2nc[nH]c3nccc2-3)CC1 [Capivasertib] (tested concentration range 1-10000 nM),0.3,3.6,3,0,2.4,2.7,4.5,7.2,23.5,4.6,4.1
CNC(=O)c1ccc(-c2cnc3ncc(Cc4ccc5ncccc5c4)n3n2)cc1F [Capmatinib] (tested concentration range 0.1-1000 nM),0,0,0.1,0,0,0,0,0,0,0.4,3.1
O=C(O)C1(C(=O)O)CCC1.[NH2-].[NH2-].[Pt+2] [Carboplatin] (tested concentration range 10-100000 nM),5.5,5.5,7.7,2.8,0.4,1.6,4.8,6.7,5.5,6,8.3
CC(C)C[C@H](NC(=O)[C@H](CCc1ccccc1)NC(=O)CN1CCOCC1)C(=O)N[C@@H](Cc1ccccc1)C(=O)N[C@@H](CC(C)C)C(=O)[C@@]1(C)CO1 [Carfilzomib] (tested concentration range 0.1-1000 nM),13.3,22,31.5,17.1,16.7,15.9,17.5,27.5,27.2,20.3,18.9
